Reference: article PMC7870638, “Toxicity of anticancer drugs in human placental tissue explants and trophoblast cell lines” (Archives of Toxicology, 2020)

Legend:
[1] = design: method as in Berveiller and Mir [2012]; Soininen et al. [2015]; conditions: ref Berveiller and Mir [2012]; Soininen et al. [2015]; cited from earlier work
[2] = system: progesterone and estrone release in placental explants; experiment: Steroid (progesterone, estrone) release in placental explants, LC-MS/MS of culture medium; type: cell-based, human; conditions: placental explants, 1, 10 and 100 µM, after 24 h
Description: (§1) Term placentas, obtained from consenting women following uncomplicated pregnancies and delivered vaginally or by caesarean section, were used for all experiments. Approval of the Regional Committee on Research involving Human Subjects was obtained (File 2014-1397). Within 60 min after delivery, 1 cm^3 villous tissue samples were excised at random areas midway between the umbilical cord and distal edge of the placenta. To remove maternal blood, samples were carefully rinsed in sterile Dulbecco’s phosphate-buffered saline supplemented with calcium chloride and magnesium chloride (Sigma-Aldrich, St. Louis, MO, USA) which was kept at 37 °C. The villous tissue was cut into small pieces weighing approximately 5 mg, after which 4–6 pieces of tissue were cultured together in individual wells of a 6-well plate. The explants were cultured in 1.5 ml of RPMI-1640 culture medium (Gibco, USA) with 15% heat-inactivated fetal bovine serum, 1% penicillin streptomycin, 1% gentamicin, and 1% amphotericin B (Life Technologies, USA). Placental explant cultures were kept for 7 days at 37 °C in a humidified gas mixture of 5% CO2 and 95% air. The culture medium was renewed every 24 h.
Treatment with TKIs or cytostatic drugs was started at day four of culture to allow for the syncytiotrophoblasts to regenerate (Siman et al. [2001]). Explants were then incubated for 72 h with 1, 10 or 100 µM of all TKIs or cytostatic drugs mentioned above. […] For cisplatin and carboplatin, culture medium was used as a solvent. Culture medium was replaced every 24 h with new medium containing the original concentration of the drug. Supernatant was collected each day and stored at − 20 °C for hormone quantification.
Progesterone and estrone concentrations in culture medium were determined by LC–MS/MS analysis using an Acquity UPLC (Waters, Milford, MA, USA) equipped with a C18 UPLC column (Acquity UPLC BEH C18, 2.1 × 50 mm, Milford, MA, USA, Waters) coupled to a Xevo TQ-S (Waters) triple quadrupole mass spectrometer. Progesterone-D9 was used as internal standard and calibration curves were made in the matrix. To precipitate proteins, methanol containing the internal standard was added to culture medium samples in a ratio 3:1 (MeOH:medium). Following subsequent centrifugation (13,000g for 3 min), 1 μl of the clear supernatant was injected into the LC–MS to quantify progesterone and estrone. Solvent A consisted of 0.2 mM NH4F in water and solvent B consisted of 0.2 mM NH4F in Acetonitrile:Methanol in a ratio of 75:25%. Separation was performed at a flow rate of 350 µl/min under the following gradient conditions: 0 min 60% eluent A, 3.0 min 0% eluent A, 4 min 0% eluent A, 5 min 60% eluent A. The effluent from the UPLC was passed directly into the electrospray ion source. Positive electrospray ionization was achieved using nitrogen as a desolation gas with ionization voltage at 600 V. The source temperature was set at 500 °C and argon was used as collision gas. The following SRM transitions were used: m/z 315.10 (parent ion) to m/z 69.9 and m/z 108.9 (both product ions) for progesterone, m/z 269.0 (parent ion) to m/z 144.9 and 158.9 (product ions) for estrone, and m/z 324.2 (parent ion) to m/z 99.9 and m/z 112.9 (product ions) for the internal standard d9-progesterone. We also attempted to quantify estradiol and estriol levels in the culture medium of both explants and cells, but these were below the detection limit.
Construction of graphs and data analysis were performed using Graphpad Prism version 8.4.2. MTT conversion and progesterone and estrone release in placental explants were normalized to tissue wet weight. To compare the effects on tissue viability and cell viability, the data were normalized to control conditions and mean differences were tested using an unpaired t test, a one-way ANOVA, or a two-way repeated measures ANOVA. […]

[3] = MTT assay in placental explants (tissue viability); type: cell-based, human; conditions: female, human, term placental villous tissue explants, 72 h exposure
Description: as §1
Treatment with TKIs or cytostatic drugs was started at day four of culture to allow for the syncytiotrophoblasts to regenerate (Siman et al. [2001]). Explants were then incubated for 72 h with 1, 10 or 100 µM of all TKIs or cytostatic drugs mentioned above. […] Culture medium was replaced every 24 h with new medium containing the original concentration of the drug. Supernatant was collected each day and stored at − 20 °C for hormone quantification.
To evaluate tissue and cell viability, after 72 h of drug exposure, tissue explants were incubated for 4 h at 37 °C with 1 mM 3-(4,5-dimethylthiazol-2-yl)-[…] (MTT) in RPMI. After incubation, the medium was removed, the tissue in each well was weighed, and the explants were subsequently placed in 500 µL DMSO for 10 min to dissolve the formazan formed. After 10 min, the DMSO was transferred to a 96-well plate and absorbance was measured at 540 nm using a Biorad Multiwell Plate reader.
Construction of graphs and data analysis were performed using Graphpad Prism version 8.4.2. MTT conversion and progesterone and estrone release in placental explants were normalized to tissue wet weight. To compare the effects on tissue viability and cell viability, the data were normalized to control conditions and mean differences were tested using an unpaired t test, a one-way ANOVA, or a two-way repeated measures ANOVA. The change in progesterone release rate as compared to the baseline (at 0 h) was calculated for each well separately, after which data were normalized to control conditions. One-way ANOVA was used to assess effects at the 72 h time point only. The Bonferroni post hoc test was applied to compare treatment conditions with controls. Data are described as mean ± SD in Figs. 2 and 3 and as mean ± SEM in all other figures where comparisons of means between groups were made. The mean and SD or SEM were calculated from all individual results (three experiments performed in duplicate or triplicate wells, n = 6 or n = 9).

[4] = system: JEG-3, BeWo, and syncytialised BeWo cells; experiment: MTT assay, cell viability in all three trophoblast cell types; type: cell-based, human
Description: Two human choriocarcinoma-derived placental cell lines were used: JEG3 and BeWo (ATCC catalog numbers HTB-36 and CCL-98, respectively). JEG3 cells were cultured in DMEM and Bewo cells in Ham’s F-12 K medium, supplemented with 10% fetal calf serum and 1% penicillin and streptomycin under a humidified 5% CO2/95% air atmosphere at 37 °C. Cells were passaged (JEG3: 1:10 twice a week; BeWo: 1:3 once a week) after trypsinization with 0.05% Trypsin–EDTA when cells reached approximately 80% confluency. For BeWo cells, the medium was renewed 3 times a week. To create syncytialised BeWo cells, regular BeWo cells were treated with 50 μM forskolin (Sigma-Aldrich, St. Louis, MO, USA) in 0.1% DMSO, to initiate syncytialisation. As forskolin increases the intracellular cAMP levels, it activates protein kinase A after which syncytialisation and fusion of trophoblasts occurs (Orendi et al. [2010]).
The cells were seeded in 96-well culture plates at a cell density of 1 × 10^4 cells/well and cultured for 24 h at 37 °C in a humidified atmosphere with 5% CO2 to allow for attachment. Subsequently, the cells were exposed to the TKIs and cytostatic drugs in concentrations ranging from 100 pM to 100 µM (triplicate). […] This is a minimum percentage DMSO, but required as cells required co-incubation with forskolin to syncytialise. Crizotinib 100 μM was used as positive control. After attachment, cells were incubated with the compounds for 48 h, after which the medium was removed and the cells were exposed to […] diluted in medium. After 3 h of incubation with MTT, the formazan crystals formed were solubilized in 50 μL DMSO. The absorbance of formazan was measured at 540 nm by a Biorad Multiwell Plate reader.

BeWo cells = system: BeWo cells; design: method as in Soininen et al. [2015]; conditions: after 4 h of exposure, ref Soininen et al. [2015], read-out: IC50 cell viability; cited from earlier work

**Q.** What does the source list for COc1cccc2c1C(=O)c1c(O)c3c(c(O)c1C2=O)C[C@@](O)(C(=O)CO)C[C@@H]3O[C@H]1C[C@H](N)[C@H](O)[C@H](C)O1 [doxorubicin]?
**A.** uptake in ex vivo perfused placental tissue, % of initial maternal concentrations [1]: 38–70%; progesterone production (in words) [2]: induced progesterone production; viability at 72 h, 1 µM ([3]; 1 µM, read-out: viability in explants, % of control values): 83 ± 7%; viability at 72 h, 100 µM ([3]; 100 µM, mean ± SEM, read-out: tissue viability, % of control): 14 ± 2%; potency on viability in cells relative to explants (times more potent) ([4]; all cell types (48 h) versus placental explants (72 h)): approximately 10 times; effect on viability (in words) ([4]; all cell types, 1 µM, 48 h exposure): fully inhibited viability in all cell types; IC50 (BeWo cells): 0.6 µM
